Assay results: US20040167229A1, “Method of lowering CRP and reducing systemic inflammation” (priority 2002, published 2004)
Marks after values point to notes of the source that are not given here.

Experiments:
[1] = system: CRP; test: Randomized, double-blind, placebo-controlled dose-response study in hypercholesterolemic patients, 8-week treatment; CRP by high sensitivity assay (Example 17); assay type: in vivo, human; settings: mean of 6 and 8 week CRP level, placebo 9.4% increase
Method: A randomized, double-blind, placebo-controlled, parallel group, dose-response, multicenter study was conducted in hypercholesterolemic patients. The study had three periods: (1) a lipid medication wash-out visit if needed; (2) a qualifying period; and (3) an 8-week double-blind treatment period. The data discussed below is from a portion of a larger study.
Patients with significant cardiac, renal (creatinine>2.0 mg/dL) or liver (alanine aminotransferase [ALT] or aspartate aminotransferase [AST]>1.5× upper limit of normal [ULN]) disease, unexplained CPK levels>3×ULN, body mass index [BMI]>38 kg/m^2, triglycerides [TG]>400 mg/dL, or age>70 years are excluded as are women who are of childbearing potential, pregnant or lactating. A subset of eligible patients was randomized to receive placebo, 300, 600 or 900 mg/day of 6,6′-oxybis(2,2-dimethylhexanoic acid) calcium salt. Each of these groups had 13 to 15 patients.
Blood samples were collected at week −2, week −1, randomization and every two weeks thereafter. CRP levels were determined using a high sensitivity assay as in example 15. The mean of the 6 and the 8 week CRP level was calculated for each patient. Values>10 were not included in the analysis as these values are indicative of acute inflammation. For each dosage group the median of the mean values was determined. These median numbers were compared with median CRP values at baseline. Percent change from baseline in CRP levels due to the administration of 300, 600, 900 mg/day of 6,6′-oxybis(2,2-dimethylhexanoic acid) calcium salt or placebo is shown in FIG. 2. At the 300, 600 and 900 mg doses the levels of CRP were reduced by 26% (p=0.16 vs placebo), 42% (p<0.01 vs placebo) and 35% (p<0.01 vs placebo) respectively, compared to a 9.4% increase in the placebo group.

[2] = system: CRP; test: Randomized, double-blind, placebo-controlled dose-response study in patients with HDL-C <35 mg/dL, 12 weeks; CRP by high sensitivity immunonephelometry (Example 15); assay type: in vivo, human; settings: for levels of CRP reduced by: 900 mg/day; for % change in CRP levels from base line: median percent change
Method: As noted above, the dialkyl ethers of this invention are useful for lowering plasma CRP levels. The ability of a dialkylether to lower plasma CRP levels was determined using in vivo studies routinely utilized by those skilled in the art.
A randomized, double-blind, placebo-controlled, parallel group, dose-response, multicenter study was conducted at 11 centers in the United States and one center in Canada. Eligible patients with HDL-C level<35 mg/dL (0.9 mmol/L) were selected following a 6-week, single-blind placebo, dietary lead in period conducted according to National Cholesterol Education Program (NCEP) Step 1 Diet. The NCEP Step 1 Diet guidelines are as follows:
Eligible patients with HDL-C level<35 mg/dL (0.9 mmol/L) were stratified according to whether mean serum TG level measured at both 2 and 4 weeks prior to randomization was <200 mg/dL (2.3 mmol/L) or ≧200 mg/dL (2.3 mmol/L). Within each TG stratum, patients were randomized to receive either 150, 300, 600, or 900 mg of 6,6′-oxybis(2,2-dimethylhexanoic acid) calcium saltor placebo daily (QD) for 12 weeks.
Eligible patients were women of non-childbearing potential (naturally postmenopausal or surgically sterilized) or men 18 to 80 years of age with a baseline HDL-C<35 mg/dL. Patients were excluded if they had creatine phosphokinase (CPK)>3 times the upper limit of normal (ULN), a body mass index>35 kg/m^2, uncontrolled hypertension defined as sitting diastolic blood pressure>95 mm Hg whether taking or not taking an acceptable antihypertensive medication, uncontrolled diabetes mellitus (HbA1C>10%), hepatic dysfunction including asparate aminotransferase (AST) or alanine aminotransferase (ALT)>2 times ULN, renal dysfunction as defined by blood urea nitrogen (BUN) or creatinine>2 times ULN or uncontrolled hypothyroidism (thyroid stimulating hormone>1.5 times ULN). Also excluded were those with a history of gall bladder disease or pancreatitis, a history of consuming>14 alcoholic drinks per week, or those with a known hypersensitivity to lipid-altering drugs. Patients who had myocardial infarction, severe or unstable angina pectoris, coronary artery bypass graft or any other cardiovascular event requiring hospitalization within the last 3 months were also excluded from the study. Patients were not permitted any other lipid-altering drugs during the course of the study and if on prestudy lipid-altering drug therapy, were required to undergo an additional 4-week washout period. Use of isotretinoin, insulin, warfarin, immunosuppressive agents and intermittent systemic steroids were also prohibited.
All blood samples were collected following a 12-hour fast and analyzed using methods well known to one of skill in the art; these methods are described briefly as follows. Serum concentrations of cholesterol and triglycerides were measured using an enzymatic, colorimetric assay on a Hitachi 747 analyzer. The HDL-C samples were obtained from the supernatant after precipitation of the non-HDL lipoproteins using heparin and manganese chloride. Concentrations of CRP were measured using immunonephelometry on a nephelometer (Dade Behring, Marburg, Germany). The high sensitivity assay was used to measure CRP (Dade Behring, Marburg, Germany).
Within each TG stratum, an ANCOVA model with the effects of baseline CRP value, treatment, and site was used to analyze the percent change from baseline at the last visit for CRP by producing least squares (LS) means and p-values. p-values were unadjusted for multiplicity.
The Shapiro-Wilk Test for Normality and visual analysis of the residuals was used to determine if the assumption of normality was reasonable. Since CRP levels in all patients were not normally distributed, median percent changes are presented and Conover's nonparametric ANCOVA was used to analyze the ranked data.

[3] = system: proinflammatory cytokine induced CRP production by human hepatoma cell line PLC/PRF/5; test: CRP production by cytokine stimulated human hepatoma PLC/PRF/5 cells, CRP ELISA of cell media (Example 16); assay type: cell-based; settings: 10 ng/ml IL-6, 1 ng/ml IL-1, 1 μM dexamethasone, 24 hours, FIG. 1
Excerpt: As noted above dialkyl ethers are useful for inhibiting proinflammatory cytokine induced CRP production. Studies have shown that the acute phase response can be recapitulated in cultured human hepatoma cells stimulated with the pro-inflammatory cytokines IL-6 and IL-1 in the presence of the corticosteroid Dexamethasone (Lozanski G, Berthier F, and Kushner I, 1997; Biochem J. 328:271-275). Using a similar hepatoma cell system we evaluated the effect 6,6′-oxybis(2,2-dimethylhexanoic acid) on CRP production by cytokine stimulated human hepatoma PLC/PRF/5 cells. […]
CRP protein concentrations were determined using a CRP ELISA Kit (Alpha Diagnostic International, Inc. San Antonio, Tex. USA (Cat. No.1000)). […] At the end of this incubation a 50 μl stop solution (as described by the manufacturer of the CRP kit) was added to each well and the plate was used to measure absorbance at 450 nm in a Spectra Max Plus, Molecular Devices spectrophotometer.
A CRP standard curve (in ng/ml) was generated by determining 450 nm absorbance values for different amounts of a standard CRP solution, provided by the vendor of the CRP kit, and correcting these values by subtracting the 450 nm absorbance of zero CRP control samples. CRP determinations in experimental samples was done as follows: 10 μl cell media samples in duplicates or triplicates were used to determine 450 nm absorbance. […]

| Structure (SMILES) | levels of CRP reduced by (median percent change from baseline) ([1]; 300 mg/day, p=0.16 vs placebo) [%] | levels of CRP reduced by (median percent change from baseline) ([1]; 600 mg/day, p<0.01 vs placebo) [%] | levels of CRP reduced by (median percent change from baseline) ([1]; 900 mg/day, p<0.01 vs placebo) [%] | reduction in the CRP level ([2]; 600 mg/day, <200 mg/dL TG stratum, not statistically significant) [%] | CRP level reduced by ([2]; 600 mg/day, ≧200 mg/dL TG stratum, p<0.05 vs Placebo) [%] | levels of CRP reduced by ([2]; <200 mg/dL TG stratum, p<0.05 vs Placebo) [%] | levels of CRP reduced by ([2]; ≧200 mg/dL TG stratum, p<0.001 vs placebo) [%] | % change in CRP levels from base line ([2]; patients TG < 200 mg/dL, 150 mg daily (QD) for 12 weeks) [%] | % change in CRP levels from base line ([2]; patients TG < 200 mg/dL, 300 mg daily (QD) for 12 weeks) [%] | % change in CRP levels from base line ([2]; patients TG < 200 mg/dL, 600 mg daily (QD) for 12 weeks, not statistically significant) [%] | % change in CRP levels from base line ([2]; patients TG < 200 mg/dL, 900 mg daily (QD) for 12 weeks, p < 0.05 versus placebo) | % change in CRP levels from base line ([2]; patients TG ≧ 200 mg/dL, 150 mg daily (QD) for 12 weeks) [%] | % change in CRP levels from base line ([2]; patients TG ≧ 200 mg/dL, 300 mg daily (QD) for 12 weeks) [%] | % change in CRP levels from base line ([2]; patients TG ≧ 200 mg/dL, 600 mg daily (QD) for 12 weeks, p < 0.05 versus placebo) | % change in CRP levels from base line ([2]; patients TG ≧ 200 mg/dL, 900 mg daily (QD) for 12 weeks, p < 0.001 versus placebo) | doses that effectively inhibited proinflammatory cytokine induced CRP production [3] [µM] |
| --- | --- | --- | --- | --- | --- | --- | --- | --- | --- | --- | --- | --- | --- | --- | --- | --- |
| CC(C)(CCCCOCCCCC(C)(C)C(=O)[O-])C(=O)[O-].[Ca+2] [6,6′-oxybis(2,2-dimethylhexanoic acid), calcium salt] | 26 | 42 | 35 | 58 | 29 | 54 | 57 | −14.3 | −16.0 | −58.3 | −53.8* % | −22.2 | −16.2 | −28.6* % | −57.1** % |  |
| CC(C)(CCCCOCCCCC(C)(C)C(=O)O)C(=O)O [6,6′-oxybis(2,2-dimethylhexanoic acid), 6,6′-Oxybis-(2,2-dimethylhexanoic acid)] |  |  |  |  |  |  |  |  |  |  |  |  |  |  |  | ≥ 500 |
